Patent publication US8017602B2, “N-(2-(2-(5-hydroxy-3-oxo-3,4-dihydro-2H-benzo[b][1,4]oxazin-8-yl)ethylamino)ethyl)-3-(phenethoxy)propanamide derivatives, processes for their preparation, pharmaceutical compositions containing them and their use in therapy” (AstraZeneca AB, priority 2008, dated 2011)
Counter-ions that a name gives are not always drawn.

How the values were obtained:
[1] = molecular target: T1, recombinant human α1D receptor (Homo sapiens, UniProt P25100); experiment: Adrenergic α1D selectivity binding assay ([3H]-prazosin); details: inhibition of [3H]-prazosin binding, HEK293 membranes, read-out: α1 bind pIC50 (converted)
T1 construct: expressed in transfected cells; host or cells: HEK293
T1 sequence (P25100 1-572): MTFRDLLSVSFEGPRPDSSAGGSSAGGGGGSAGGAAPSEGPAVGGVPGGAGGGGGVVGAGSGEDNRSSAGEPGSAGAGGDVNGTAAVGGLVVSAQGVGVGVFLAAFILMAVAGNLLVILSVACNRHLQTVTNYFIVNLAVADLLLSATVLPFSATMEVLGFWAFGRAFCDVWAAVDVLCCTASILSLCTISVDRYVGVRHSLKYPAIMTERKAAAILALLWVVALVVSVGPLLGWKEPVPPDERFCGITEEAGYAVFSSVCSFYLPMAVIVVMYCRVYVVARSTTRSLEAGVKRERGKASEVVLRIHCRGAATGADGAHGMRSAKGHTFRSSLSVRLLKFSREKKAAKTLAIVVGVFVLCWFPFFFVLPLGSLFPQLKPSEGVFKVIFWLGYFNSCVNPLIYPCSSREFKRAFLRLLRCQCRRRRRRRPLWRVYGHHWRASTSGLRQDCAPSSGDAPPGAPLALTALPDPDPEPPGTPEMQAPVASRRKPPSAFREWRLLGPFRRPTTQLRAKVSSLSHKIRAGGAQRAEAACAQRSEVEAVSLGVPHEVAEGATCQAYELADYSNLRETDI
Method: Membranes were prepared from human embryonic kidney 293 (HEK293) cells expressing recombinant human α1D receptor. These were diluted in Assay Buffer (50 mM HEPES, 1 mM EDTA, pH 7.4) to provide a final concentration of membranes that gave a clear window between maximum and minimum specific binding.
(§1) Assays were performed in U-bottomed 96-well polypropylene plates. 10 μl [^3H]-prazosin (0.3 nM final concentration) and 10 μl of test compound (10× final concentration) were added to each test well. For each assay plate 8 replicates were obtained for [^3H]-prazosin binding in the presence of 10 μl vehicle (10% (v/v) DMSO in Assay Buffer; defining maximum binding) or 10 μL BMY7378 (10 μM final concentration; defining non-specific binding (NSB)). Membranes were then added to achieve a final volume of 100 μL. The plates were incubated for 2 h at room temperature and then filtered onto PEI coated GF/B filter plates, pre-soaked for 1 h in Assay Buffer, using a 96-well plate Tomtec cell harvester. Five washes with 250 μl wash buffer (50 mM HEPES, 1 mM EDTA, pH 7.4) were performed at 4° C. to remove unbound radioactivity. The plates were dried then sealed from underneath using Packard plate sealers and MicroScint-O (50 μl) was added to each well. The plates were sealed (TopSeal A) and filter-bound radioactivity was measured with a scintillation counter (TopCount, Packard BioScience) using a 3-minute counting protocol.
(§2) Total specific binding (B0) was determined by subtracting the mean NSB from the mean maximum binding. NSB values were also subtracted from values from all other wells. […] Data was fitted to a four parameter logistic equation to determine the compound potency, which was expressed as pIC50 (negative log molar concentration inducing 50% inhibition of [^3H]-prazosin binding).

[2] = molecular target: T2, recombinant human adrenergic beta 1 receptors (Homo sapiens, UniProt P08588); experiment: Adrenergic β1 selectivity binding assay ([125I]-Iodocyanopindolol); details: inhibition of [125I]-Iodocyanopindolol binding, human β1 membranes; read-out: β1 bind p IC50 (converted)
T2 construct: purchased Euroscreen
T2 sequence (P08588 whole entry): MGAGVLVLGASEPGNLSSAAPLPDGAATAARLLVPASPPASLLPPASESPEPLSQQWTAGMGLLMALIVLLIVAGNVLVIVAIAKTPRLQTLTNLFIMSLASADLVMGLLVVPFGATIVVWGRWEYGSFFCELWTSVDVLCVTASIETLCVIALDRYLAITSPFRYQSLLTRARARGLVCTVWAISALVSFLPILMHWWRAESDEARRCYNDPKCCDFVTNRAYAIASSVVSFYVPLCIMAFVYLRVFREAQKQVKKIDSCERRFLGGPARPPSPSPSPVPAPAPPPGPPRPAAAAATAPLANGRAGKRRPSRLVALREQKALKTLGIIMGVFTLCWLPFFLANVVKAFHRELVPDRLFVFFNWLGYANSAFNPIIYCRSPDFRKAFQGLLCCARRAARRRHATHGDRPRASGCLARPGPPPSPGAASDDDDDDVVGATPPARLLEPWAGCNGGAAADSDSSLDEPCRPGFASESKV
Method: (§3) Membranes containing recombinant human adrenergic beta 1 receptors were obtained from Euroscreen. These were diluted in Assay Buffer (50 mM HEPES, 1 mM EDTA, 120 mM NaCl, 0.1% gelatin, pH 7.4) to provide a final concentration of membranes that gave a clear window between maximum and minimum specific binding.
as §1, with “plates. 10 μL [^125I]-Iodocyanopindolol (0.036 nM final” for “plates. 10 μl [^3H]-prazosin (0.3 nM final”, “and 10 μL of test” for “and 10 μl of test”, “obtained for [^125I]-Iodocyanopindolol binding in” for “obtained for [^3H]-prazosin binding in”, “or 10 μl Propranolol (10 μM” for “or 10 μL BMY7378 (10 μM”, “with 250 μL wash buffer” for “with 250 μl wash buffer”, “mM EDTA, 120 mM NaCl, pH 7.4)” for “mM EDTA, pH 7.4)”
as §2, with “[^125I]-Iodocyanopindolol” for “[^3H]-prazosin”

[3] = molecular target: T3, Adrenergic β2 (Homo sapiens, UniProt P07550); experiment: Adrenergic β2 mediated cAMP production in H292 cells (AlphaScreen cAMP detection); type: cell-based; details: for β2 Int Act: Intrinsic Activity, fraction relative to the maximum activity determined for formoterol; for EC50: cAMP production, 60 min at room temperature, 300 μM rolipram, read-out: β2 pEC50 (converted)
T3 construct: Adherent H292 cells were removed from tissue culture flasks; endogenous in cells; host or cells: H292 cells
T3 sequence (P07550 whole entry): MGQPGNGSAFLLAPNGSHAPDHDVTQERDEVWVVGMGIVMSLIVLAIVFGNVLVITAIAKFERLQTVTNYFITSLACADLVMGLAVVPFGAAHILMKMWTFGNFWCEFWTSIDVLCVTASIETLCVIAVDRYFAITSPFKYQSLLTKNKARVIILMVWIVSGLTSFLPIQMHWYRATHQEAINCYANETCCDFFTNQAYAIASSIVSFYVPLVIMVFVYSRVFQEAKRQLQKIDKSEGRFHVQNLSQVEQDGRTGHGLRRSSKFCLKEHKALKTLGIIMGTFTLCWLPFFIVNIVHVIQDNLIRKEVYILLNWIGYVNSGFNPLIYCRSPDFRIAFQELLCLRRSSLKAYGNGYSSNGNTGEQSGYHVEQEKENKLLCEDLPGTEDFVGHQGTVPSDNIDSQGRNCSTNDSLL
Method: H292 cells were grown in 225 cm2 flasks incubator at 37° C., 5% CO2 in RPMI medium containing, 10% (v/v) FBS (foetal bovine serum) and 2 mM L-glutamine.
Adherent H292 cells were removed from tissue culture flasks by treatment with Accutase™ cell detachment solution for 15 min. Flasks were incubated for 15 min in a humidified incubator at 37° C., 5% CO2. Detached cells were re-suspended in RPMI media (containing 10% (v/v) FBS and 2 mM L-glutamine) at […]. 10000 cells in 100 μl were added to each well of a tissue-culture-treated 96-well plate and the cells incubated overnight in a humidified incubator at 37° C., 5% CO2. The culture media was removed and cells were washed twice with 100 μl assay buffer and replaced with 50 μL assay buffer (HBSS solution containing 10 mM HEPES pH7.4 and 5 mM glucose). Cells were rested at room temperature for 20 min after which time 25 μl of rolipram (1.2 mM made up in assay buffer containing 2.4% (v/v) dimethylsulphoxide) was added. Cells were incubated with rolipram for 10 min after which time test compounds were added and the cells were incubated for 60 min at room temperature. The final rolipram concentration in the assay was 300 μM and final vehicle concentration was 1.6% (v/v) dimethylsulphoxide. The reaction was stopped by removing supernatants, washing once with 100 μL assay buffer and replacing with 50 μL lysis buffer. The cell monolayer was frozen at −80° C. for 30 min (or overnight).
AlphaScreen™ cAMP Detection
The concentration of cAMP (cyclic adenosine monophosphate) in the cell lysate was determined using AlphaScreen™ methodology. The frozen cell plate was thawed for 20 min on a plate shaker then 10 μl of the cell lysate was transferred to a 96-well white plate. 40 μL of mixed AlphaScreen™ detection beads pre-incubated with biotinylated cAMP, was added to each well and the plate incubated at room temperature for 10 h in the dark. The AlphaScreen™ signal was measured using an EnVision spectrophotometer (Perkin-Elmer Inc.) with the recommended manufacturer's settings. cAMP concentrations were determined by reference to a calibration curve determined in the same experiment using standard cAMP concentrations. Concentration response curves for agonists were constructed and data was fitted to a four parameter logistic equation to determine both the pEC50 and Intrinsic Activity. Intrinsic Activity was expressed as a fraction relative to the maximum activity determined for formoterol in each experiment.

[4] = molecular target: T4, recombinant human Dopamine Subtype D2s receptors (Homo sapiens, UniProt P14416); experiment: Dopamine D2 selectivity binding assay ([3H]-spiperone); details: inhibition of [3H]-spiperone binding, human D2s membranes; read-out: D2 bind pIC50 (converted)
T4 construct: purchased Perkin Elmer
T4 sequence (P14416 1-414 isoform P14416-2): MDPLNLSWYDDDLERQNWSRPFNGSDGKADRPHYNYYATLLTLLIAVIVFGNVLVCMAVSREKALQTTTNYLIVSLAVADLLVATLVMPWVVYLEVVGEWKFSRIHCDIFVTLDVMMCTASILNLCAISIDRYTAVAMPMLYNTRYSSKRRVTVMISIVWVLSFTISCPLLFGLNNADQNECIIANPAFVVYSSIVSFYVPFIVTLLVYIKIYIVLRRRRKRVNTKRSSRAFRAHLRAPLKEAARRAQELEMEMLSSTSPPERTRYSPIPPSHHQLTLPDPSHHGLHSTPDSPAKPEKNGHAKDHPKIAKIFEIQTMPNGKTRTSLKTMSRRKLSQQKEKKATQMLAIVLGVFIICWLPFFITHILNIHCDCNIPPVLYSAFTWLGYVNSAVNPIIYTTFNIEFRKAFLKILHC
Method: as §3, with “Dopamine Subtype D2s” for “adrenergic beta 1”, “Perkin Elmer.” for “Euroscreen.”
Assays were performed in U-bottomed 96-well polypropylene plates. 30 μL [^3H]-spiperone (0.16 nM final concentration) and 30 μl of test compound (10× final concentration) were added to each test well. For each assay plate 8 replicates were obtained for [^3H]-spiperone binding in the presence of 30 μL vehicle (10% (v/v) DMSO in Assay Buffer; defining maximum binding) or 30 μl Haloperidol (10 μM final concentration; defining non-specific binding (NSB)). Membranes were then added to achieve a final volume of 300 μL. The plates were incubated for 2 h at room temperature and then filtered onto PEI coated GF/B filter plates, pre-soaked for 1 h in Assay Buffer, using a 96-well plate Tomtec cell harvester. Five washes with 250 μl wash buffer (50 mM HEPES, 1 mM EDTA, 120 mM NaCl, pH 7.4) were performed at 4° C. to remove unbound radioactivity. The plates were dried then sealed from underneath using Packard plate sealers and MicroScint-O (50 μl) was added to each well. The plates were sealed (TopSeal A) and filter-bound radioactivity was measured with a scintillation counter (TopCount, Packard BioScience) using a 3-minute counting protocol.
as §2, with “[^3H]-spiperone” for “[^3H]-prazosin”

IC50 [1] [µM]	IC50 [2] [µM]	β2 Int Act [3]	EC50 [3] [µM]	IC50 [4] [µM]	Structure (SMILES)
1	> 7.94	0.96	0.00631	–	Cn1cc(-c2cccc(CCOCCC(=O)N(CCNCCc3ccc(O)c4c3OCC(=O)N4)C3CCCCC3)c2)cn1 [01 and 02]
1.58	–	0.95	0.0126	2	Cn1cc(-c2cccc(CCOCCC(=O)N(CCNCCc3ccc(O)c4c3OCC(=O)N4)C3CCCCCC3)c2)nn1 [Example 06, N-Cycloheptyl-N-(2-(2-(5-hydroxy-3-oxo-3,4-dihydro-2H-benzo[b][1,4]oxazin-8-yl)ethylamino)ethyl)-3-(3-(1-methyl-1H-1,2,3-triazol-4-yl)phenethoxy)propanamide Trifluoroacetic Acid Salt]
0.631	–	0.85	0.01	3.98	O=C1COc2c(CCNCCN(C(=O)CCOCCc3cccc(-c4ncon4)c3)C3CCCCC3)ccc(O)c2N1 [Example 11, 3-(3-(1,2,4-Oxadiazol-3-yl)phenethoxy)-N-cyclohexyl-N-(2-(2-(5-hydroxy-3-oxo-3,4-dihydro-2H-benzo[b][1,4]oxazin-8-yl)ethylamino)ethyl)propanamide Trifluoroacetic Acid Salt]
1	> 7.94	0.97	0.01	–	CCCn1cc(-c2cccc(CCOCCC(=O)N(CCNCCc3ccc(O)c4c3OCC(=O)N4)C3CCCC3)c2)cn1 [Example 18, N-Cyclopentyl-N-(2-(2-(5-hydroxy-3-oxo-3,4-dihydro-2H -benzo[b][1,4]oxazin-8-yl)ethylamino)ethyl)-3-(3-(1-propyl-1H -pyrazol-4-yl)phenethoxy)propanamide Trifluoroacetic Acid Salt]
0.501	> 10	1.00	0.01	–	CC(C)[C@@H](C)N(CCNCCc1ccc(O)c2c1OCC(=O)N2)C(=O)CCOCCc1cccc(-c2cnn(C(C)C)c2)c1 [Example 20, (R)—N-(2-(2-(5-Hydroxy-3-oxo-3,4-dihydro-2H-benzo[b][1,4]oxazin-8-yl)ethylamino)ethyl)-3-(3-(1-isopropyl-1H-pyrazol-4-yl)phenethoxy)-N-(3-methylbutan-2-yl)propanamide Trifluoroacetic Acid Salt]
0.794	> 10	0.98	0.00631	–	CCn1cc(-c2cccc(CCOCCC(=O)N(CCNCCc3ccc(O)c4c3OCC(=O)N4)[C@H](C)C(C)C)c2)cn1 [Example 23, (R)-3-(3-(1-Ethyl-1H-pyrazol-4-yl)phenethoxy)-N-(2-(2-(5-hydroxy-3-oxo-3,4-dihydro-2H-benzo[b][1,4]oxazin-8-yl)ethylamino)ethyl)-N-(3-methylbutan-2-yl)propanamide Trifluoroacetic Acid Salt]
